In brackets after ≈: the same amount, converted by molar mass. Like-named read-outs stand apart in the source and are kept apart here.
How the values were obtained:
5-HT2A receptor = 5-HT2A receptor (Homo sapiens, UniProt P28223); assay: Calcium ion mobility in cells stably expressing 5-HT2A receptors (Flp-In-CHO-5HT2A, FLIPR); assay type: cell-based; design: expressed in transfected cells; settings: Flp-In-CHO-5HT2A stable pool, 5HT stimulation
Method: Determination of the effect of the compounds of the present invention on calcium ion mobility in cells stably expressing 5-HT2A receptors
To determine the inhibitory effect of the compounds on 5-HT2A receptor.
• 1) Preparation of the buffer: 1 x HBSS, 20 mM HEPES, 2.5 mM probenecid (probenecid was 400 mM stock in 1 M NaOH), 0.1% BSA. Probenecid and BSA were added fresh on the day of the experiment. Experimental buffers include dye buffer and compound dilution buffer. • 2) Cell culture medium: Ham's F-12K + 10% fetal bovine serum + 600 µg/ml hygromycin B + 1* penicillin-streptomycin. Seeding medium: Ham's F-12K + 10% dialysis serum; Assay buffer: 1 x HBSS + 20 mM HEPES; Cell line: Flp-In-CHO-5HT2A stable pool. • 3) The cells were cultured in the complete medium at 37°C, 5% CO2 to 70%-90% confluency. The cells were digested with TrypLE, seeded to the 384-well assay plate at a density of 1 × 10^4 cells/well, and incubated for 16 to 24 hours (at least overnight). • 4) 20X Component A was thawed to room temperature, diluted to 2X working concentration (containing 5mM Probenecid) with the assay buffer, and placed at room temperature for later use. • 5) The cell culture plate was taken out and left to stand at room temperature for 10 min. […] 10 µl of diluted 5HT was add to each experimental well using FLIPR Tetra, and the values were read.
The calcium signal values were determined by FLIPR. The calculated output for each sampling time point in the experiment was the ratio of the 340/510 nm wavelength signals to 380/510 nm wavelength signals. The maximum minus minimum calculation was derived from the ratio signal curve. The percent inhibition rate and ten-point concentration data were fitted to the parametric nonlinear logistic equation by using GraphPad prism to calculate the IC50 values of the compound.

D3 receptor = target: T1, D3 receptor (Homo sapiens, UniProt P35462); assay: cAMP content in cells stably expressing D3 receptors (CHO-D3, forskolin, HTRF); assay type: cell-based
T1 construct: expressed in transfected cells
Method: Determination of the effect of the compounds of the present invention on cAMP content in cells stably expressing D3 receptors
To determine the activation effect of the compounds on D3 receptor.
• 1. Preparation of the buffer: 1* HBSS + 20mM HEPES + 0.1% BSA + 500 µM IBMX. Complete medium: Ham's F12K + 10% fetal bovine serum +1* penicillin-streptomycin + 400 µg/mL G418. • 2. CHO-D3 cells were cultured in the complete medium at 37°C, 5% CO2. After TrypLE digestion, the cells were resuspended in the experimental buffer, and seeded into a 384-well cell culture plate at a seeding density of 8000 cells per well. • 3. The experimental buffer (1*HBSS, 0.1% BSA, 20 mM HEPES and 500 µM IBMX) was prepared. The compound was diluted with the buffer. 2.5 µL of the compound solution was added to each well, and the plate was incubated at 37°C for 10 minutes. The forskolin was diluted to 8 µM (8*) with the experimental buffer. 2.5 µL of the diluted 8* forskolin was added, and the plate was incubated at 37°C for 30 minutes. cAMP-d2 and Anti-cAMP-Eu^3+ were thawed, and diluted by 20-fold with the lysis buffer. 10 µL of cAMP-d2 was added to the experimental well, followed by the addition of 10 µL of Anti-cAMP-Eu^3+. The reaction plate was centrifuged at 200 g for 30 s at room temperature, and left to stand at 25°C for 1 h. Data was collected using Envision.

[1] = Pharmacokinetic assay in Balb/c mice (plasma and brain tissue); assay type: in vivo; settings: male, mouse, po, p.o. 5 mg/kg; for AUC(0-t): read-out: Area under curve AUC0-t; for Tmax: read-out: Peak time tmax; for Cmax: read-out: Plasma concentration Cmax
Method: Balb/c mice were used as test animals. The pharmacokinetic behavior in mouse body (plasma and brain tissue) of the compounds of Examples of the present invention was studied at an oral administration dose of 5 mg/kg.
Compounds of the Examples of the present invention, prepared by the applicant.
Male Balb/c mice (12 mice per group), purchased from Shanghai Jiesijie Laboratory Animal Co., LTD, with Certificate No.: SCXK (Shanghai) 2013-0006 N0.311620400001794.
The test compound was dissolved in 0.5% CMC-Na (1% Tween80) by sonication to formulate a clear solution or homogeneous suspension.
After an overnight fast, male Balb/c mice (12 mice per group) were administered p.o. with the test compound at an administration dose of 5 mg/kg and an administration volume of 10 mL/kg.
0.2 mL of blood was taken from the heart of the mouse before administration and at 1, 2, 4, 8 and 24 hours after administration, and the mice were sacrificed with CO2. The samples were stored in EDTA-K2 tubes, and centrifuged for 6 minutes at 4°C, 6000 rpm to separate the plasma. The plasma samples were stored at -80°C. Whole brain tissue was taken out, weighed, placed in a 2 mL centrifuge tube, and stored at -80°C.
• 1) 160 µL of acetonitrile was added to 40 µL of the plasma sample for precipitation, and then the mixture was centrifuged for 5 to 20 minutes at 3500 × g. • 2) 90 µL of acetonitrile containing internal standard (100 ng/mL) was added to 30 µL of the plasma and brain homogenate sample for precipitation, and then the mixture was centrifuged for 8 minutes at 13000 rpm. • 3) 70 µL of water was added to 70 µL of the treated supernatant and mixed by vortex for 10 minutes. 20 µL of the supernatant was taken to analyze the concentration of the test compound by LC/MS/MS. LC/MS/MS analytical instrument: AB Sciex API 4000 Qtrap.
• Liquid chromatography condition: Shimadzu LC-20AD pump • Chromatographic column: Agilent ZORBAX XDB-C18 (50×2.1 mm, 3.5 µm); Mobile phase: Eluent A was 0.1% formic acid in water, and Eluent B was acetonitrile • Flow rate: 0.4 mL/min • Elution time: 0-4.0 minutes, the eluent is as follows:
The main parameters of pharmacokinetics were calculated by WinNonlin 6.1. Table 17: Experimental results of pharmacokinetic assay in mice

[2] = Solubility of hydrochloride and free base in different media (37°C, 24 hours, HPLC); assay type: physicochemical; settings: thermodynamic from solid
Method: The glass bottle was shaken overnight on an electrothermal constant temperature shaking tank, and the temperature was set to 37°C. After 24 hours, the sample solution was filtered with a 0.45 µm mixed water fiber filter membrane, and the subsequent filtrate was taken to test its content by HPLC. HPLC detection methods are described in "Stability Study Conditions". Table 24 Solubility of hydrochloride and free base in different pH buffers

Chain of 5-HT2A receptor (P28223 whole entry): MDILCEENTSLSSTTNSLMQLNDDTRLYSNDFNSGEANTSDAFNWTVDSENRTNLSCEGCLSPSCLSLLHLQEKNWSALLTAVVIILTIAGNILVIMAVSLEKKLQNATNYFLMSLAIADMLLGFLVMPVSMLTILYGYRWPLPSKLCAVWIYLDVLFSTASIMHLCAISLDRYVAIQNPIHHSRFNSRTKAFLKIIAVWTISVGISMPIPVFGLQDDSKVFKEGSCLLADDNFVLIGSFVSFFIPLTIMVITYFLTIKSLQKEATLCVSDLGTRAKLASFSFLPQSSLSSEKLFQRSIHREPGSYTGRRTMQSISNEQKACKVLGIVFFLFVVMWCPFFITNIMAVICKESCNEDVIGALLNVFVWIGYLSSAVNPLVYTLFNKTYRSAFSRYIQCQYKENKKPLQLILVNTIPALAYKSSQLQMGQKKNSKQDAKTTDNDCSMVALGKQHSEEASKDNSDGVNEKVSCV
T1 sequence (P35462 whole entry): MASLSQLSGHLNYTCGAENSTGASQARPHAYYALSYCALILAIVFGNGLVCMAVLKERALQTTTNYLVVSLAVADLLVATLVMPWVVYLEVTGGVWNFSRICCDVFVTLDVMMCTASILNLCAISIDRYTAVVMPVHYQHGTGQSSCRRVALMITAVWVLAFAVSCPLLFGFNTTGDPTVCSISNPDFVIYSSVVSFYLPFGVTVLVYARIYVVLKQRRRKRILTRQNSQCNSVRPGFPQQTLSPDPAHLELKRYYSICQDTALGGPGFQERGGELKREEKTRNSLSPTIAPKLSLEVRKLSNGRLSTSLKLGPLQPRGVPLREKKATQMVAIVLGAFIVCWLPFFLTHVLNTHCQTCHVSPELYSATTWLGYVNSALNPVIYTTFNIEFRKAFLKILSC

Cc1ccc(C(=O)NC2CC(CCN3CCN(c4cccc(Cl)c4Cl)CC3)C2)o1 (stereo not drawn) [Example 1, N-(3-(2-(4-(2,3-Dichlorophenyl)piperazin-1-yl)ethyl)cyclobutyl)-5-methylfuran-2-c arboxamide]
IC50 (5-HT2A receptor): 8.08 nM | EC50 (D3 receptor): 3.5 nM

COCC(=O)NC1CC(CCN2CCN(c3cccc(Cl)c3Cl)CC2)C1 (stereo not drawn) [Example 2, N-(3-(2-(4-(2,3-Dichlorophenyl)piperazin-1-yl)ethyl)cyclobutyl)-2-methoxyacetamide]
IC50 (5-HT2A receptor): 16.7 nM | EC50 (D3 receptor): 2.2 nM

O=C(NC1CC(CCN2CCN(c3cccc(Cl)c3Cl)CC2)C1)c1cccnc1 (stereo not drawn) [Example 3, N-(3-(2-(4-(2,3-Dichlorophenyl)piperazin-1-yl)ethyl)cyclobutyl)nicotinamide]
IC50 (5-HT2A receptor): 48 nM | EC50 (D3 receptor): 1.2 nM

COC1CN(C(=O)NC2CC(CCN3CCN(c4cccc(Cl)c4Cl)CC3)C2)C1 (stereo not drawn) [Example 5, N-(3-(2-(4-(2,3-Dichlorophenyl)piperazin-1-yl)ethyl)cyclobutyl)-3-methoxyazetidine-1-carboxamide]
IC50 (5-HT2A receptor): 22.1 nM | EC50 (D3 receptor): 2.4 nM

O=C(NC1CC(CCN2CCN(c3cccc(Cl)c3Cl)CC2)C1)C1(O)CC1 (stereo not drawn) [Example 6, N-(3-(2-(4-(2,3-Dichlorophenyl)piperazin-1-yl)ethyl)cyclobutyl)-1-hydroxycyclopro pane-1-carboxamide]
IC50 (5-HT2A receptor): 13.1 nM | AUC(0-t) ([1]; Brain): 1970 ng·h/mL | Tmax ([1]; Brain): 1 h | Cmax ([1]; Brain): 464 ng/mL | AUC(0-t) ([1]; Plasma): 2330 ng·h/mL | AUC(0-inf) ([1]; Plasma, read-out: Area under curve AUC0-∞): 2460 ng·h/mL | MRT ([1]; Plasma, read-out: Average residence time MRT): 2.8 h | half-life ([1]; Plasma, read-out: Half life t1/2 (converted)): 1.9 h | Tmax ([1]; Plasma): 0.5 h | Cmax ([1]; Plasma): 865 ng/mL | EC50 (D3 receptor): 2.9 nM

Cc1cc(CC(=O)NC2CC(CCN3CCN(c4cccc(Cl)c4Cl)CC3)C2)on1 (stereo not drawn) [Example 10, N-(3-(2-(4-(2,3-Dichlorophenyl)piperazin-1-yl)ethyl)cyclobutyl)-2-(3-methylisoxazol-5-yl)acetamide]
IC50 (5-HT2A receptor): 8.9 nM | EC50 (D3 receptor): 1.2 nM

Cc1cnoc1C(=O)NC1CC(CCN2CCN(c3cccc(Cl)c3Cl)CC2)C1 (stereo not drawn) [Example 13, N-(3-(2-(4-(2,3-Dichlorophenyl)piperazin-1-yl)ethyl)cyclobutyl)-4-methylisoxazole-5-carboxamide]
IC50 (5-HT2A receptor): 10.9 nM | EC50 (D3 receptor): 3.4 nM

Cc1cc(C(=O)NC2CC(CCN3CCN(c4cccc(Cl)c4Cl)CC3)C2)on1 (stereo not drawn) [Example 14, N-(3-(2-(4-(2,3-Dichlorophenyl)piperazin-1-yl)ethyl)cyclobutyl)-3-methylisoxazole-5-carboxamide]
IC50 (5-HT2A receptor): 13.4 nM | EC50 (D3 receptor): 1.2 nM

O=C(NC1CC(CCN2CCN(c3cccc(Cl)c3Cl)CC2)C1)c1ccno1 (stereo not drawn) [Example 15, N-(3-(2-(4-(2,3-Dichlorophenyl)piperazin-1-yl)ethyl)cyclobutyl)isoxazole-5-carboxamide]
IC50 (5-HT2A receptor): 8.06 nM | EC50 (D3 receptor): 1.7 nM

Cc1ncc(C(=O)NC2CC(CCN3CCN(c4cccc(Cl)c4Cl)CC3)C2)o1 (stereo not drawn) [Example 16, N-(3-(2-(4-(2,3-Dichlorophenyl)piperazin-1-yl)ethyl)cyclobutyl)-2-methyloxazole-5-carboxamide]
IC50 (5-HT2A receptor): 5.78 nM | EC50 (D3 receptor): 0.7 nM

O=C(NC1CC(CCN2CCN(c3cccc(Cl)c3Cl)CC2)C1)c1ccon1 (stereo not drawn) [Example 17, N-(3-(2-(4-(2,3-Dichlorophenyl)piperazin-1-yl)ethyl)cyclobutyl)isoxazole-3-carboxamide]
IC50 (5-HT2A receptor): 8.92 nM | EC50 (D3 receptor): 3.1 nM

Cc1nc(C(=O)NC2CC(CCN3CCN(c4cccc(Cl)c4Cl)CC3)C2)co1 (stereo not drawn) [Example 18, N-(3-(2-(4-(2,3-Dichlorophenyl)piperazin-1-yl)ethyl)cyclobutyl)-2-methyloxazole-4-carboxamide]
IC50 (5-HT2A receptor): 6.4 nM | EC50 (D3 receptor): 3.9 nM

O=C(NC1CC(CCN2CCN(c3cccc(Cl)c3Cl)CC2)C1)c1cccc2ncccc12 (stereo not drawn) [Example 19, N-(3-(2-(4-(2,3-Dichlorophenyl)piperazin-1-yl)ethyl)cyclobutyl)quinoline-5-carbox amide]
IC50 (5-HT2A receptor): 7.37 nM | EC50 (D3 receptor): 1 nM

N#CC1(C(=O)NC2CC(CCN3CCN(c4cccc(Cl)c4Cl)CC3)C2)CC1 (stereo not drawn) [Example 21, 1-Cyano-N-(3-(2-(4-(2,3-dichlorophenyl)piperazin-1-yl)ethyl)cyclobutyl)cyclopropane-1-carboxamide]
IC50 (5-HT2A receptor): 33.5 nM | EC50 (D3 receptor): 3.3 nM

O=C(N[C@H]1C[C@H](CCN2CCN(c3cccc(Cl)c3Cl)CC2)C1)c1ncco1 [crystal form B of free base]
solubility at 24 h ([2]; aqueous buffer, Buffer pH 3): > 1000 µg/mL | solubility at 24 h ([2]; aqueous buffer, Buffer pH 4): > 1000 µg/mL | solubility at 24 h ([2]; aqueous buffer, Buffer pH 5): > 1000 µg/mL | solubility at 24 h ([2]; aqueous buffer, Buffer pH 6): 388 µg/mL (≈ 917 µM) | solubility at 24 h ([2]; aqueous buffer, Buffer pH 7): 44 µg/mL (≈ 104 µM) | solubility at 24 h ([2]; aqueous buffer, Buffer pH 8): 2 µg/mL (≈ 4.72 µM) | solubility at 24 h ([2]; fassgf or other biorelevant, FaSSCoF): > 1000 µg/mL | solubility at 24 h ([2]; fassgf or other biorelevant, FaSSGF): 154 µg/mL (≈ 364 µM) | solubility at 24 h ([2]; fassgf or other biorelevant, FeSSCoF): > 1000 µg/mL | solubility at 24 h ([2]; simulated gastric fluid, Buffer pH 1): > 1000 µg/mL | solubility at 24 h ([2]; simulated gastric fluid, Buffer pH 2): > 1000 µg/mL | solubility at 24 h ([2]; FaSSIF): > 1000 µg/mL | solubility at 24 h ([2]; FeSSIF): > 1000 µg/mL | solubility at 24 h ([2]; water, H2O): 125 µg/mL (≈ 295 µM)
